{"source": "ChEMBL document CHEMBL1128530", "about": "“Alpha- and beta-adrenoceptors: from the gene to the clinic. 1. Molecular biology and adrenoceptor subclassification” (J Med Chem, 1995)", "key": {"[1]": {"target": "T1, Alpha-2A adrenergic receptor (Bos taurus, UniProt Q28838)", "T1 sequence (Q28838 whole entry)": "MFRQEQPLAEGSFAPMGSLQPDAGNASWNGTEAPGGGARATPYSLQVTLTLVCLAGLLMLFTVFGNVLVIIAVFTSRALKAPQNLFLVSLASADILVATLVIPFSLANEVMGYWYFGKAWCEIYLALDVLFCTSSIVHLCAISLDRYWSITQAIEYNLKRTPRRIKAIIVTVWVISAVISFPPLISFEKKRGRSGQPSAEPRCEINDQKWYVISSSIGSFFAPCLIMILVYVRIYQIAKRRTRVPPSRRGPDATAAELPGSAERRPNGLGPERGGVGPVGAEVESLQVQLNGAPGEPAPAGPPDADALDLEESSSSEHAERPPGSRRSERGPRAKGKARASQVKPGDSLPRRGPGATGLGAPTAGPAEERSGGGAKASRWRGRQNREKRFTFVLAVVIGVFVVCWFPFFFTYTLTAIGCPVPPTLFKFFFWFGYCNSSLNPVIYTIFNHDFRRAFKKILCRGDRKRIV", "experiment": "Compound was evaluated for inhibition of binding of [3H]MK-91 to Alpha-2 adrenergic receptor in bovine pineal"}, "[2]": {"target": "T2, Alpha-2 adrenergic receptor (Mus musculus, UniProt P30545+Q01338+Q01337)", "T2 sequence (P30545 whole entry)": "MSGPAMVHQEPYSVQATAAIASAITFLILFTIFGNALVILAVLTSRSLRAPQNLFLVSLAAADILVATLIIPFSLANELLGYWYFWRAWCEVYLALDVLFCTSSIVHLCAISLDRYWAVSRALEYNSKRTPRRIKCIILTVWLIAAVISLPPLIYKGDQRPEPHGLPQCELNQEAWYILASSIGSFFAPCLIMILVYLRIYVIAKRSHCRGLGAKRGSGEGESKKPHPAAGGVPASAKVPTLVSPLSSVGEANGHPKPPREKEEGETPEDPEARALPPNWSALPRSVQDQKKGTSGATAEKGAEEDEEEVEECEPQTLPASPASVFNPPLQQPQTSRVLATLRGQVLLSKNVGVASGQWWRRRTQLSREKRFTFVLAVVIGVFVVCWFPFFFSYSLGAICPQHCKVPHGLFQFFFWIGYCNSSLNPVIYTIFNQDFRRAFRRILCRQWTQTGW", "T2 sequence (Q01338 whole entry)": "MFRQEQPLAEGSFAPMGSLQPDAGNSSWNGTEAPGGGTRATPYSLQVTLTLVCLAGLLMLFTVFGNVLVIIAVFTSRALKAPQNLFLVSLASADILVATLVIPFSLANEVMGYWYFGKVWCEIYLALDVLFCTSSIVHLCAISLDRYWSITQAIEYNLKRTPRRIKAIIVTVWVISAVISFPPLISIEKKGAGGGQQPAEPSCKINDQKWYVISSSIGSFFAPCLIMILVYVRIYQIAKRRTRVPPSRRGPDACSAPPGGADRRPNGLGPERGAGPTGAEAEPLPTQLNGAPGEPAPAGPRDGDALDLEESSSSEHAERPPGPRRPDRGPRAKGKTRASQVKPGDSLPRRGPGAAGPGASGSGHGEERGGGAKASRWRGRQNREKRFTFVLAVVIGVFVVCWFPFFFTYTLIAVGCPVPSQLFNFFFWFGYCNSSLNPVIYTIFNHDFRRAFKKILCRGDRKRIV", "T2 sequence (Q01337 whole entry)": "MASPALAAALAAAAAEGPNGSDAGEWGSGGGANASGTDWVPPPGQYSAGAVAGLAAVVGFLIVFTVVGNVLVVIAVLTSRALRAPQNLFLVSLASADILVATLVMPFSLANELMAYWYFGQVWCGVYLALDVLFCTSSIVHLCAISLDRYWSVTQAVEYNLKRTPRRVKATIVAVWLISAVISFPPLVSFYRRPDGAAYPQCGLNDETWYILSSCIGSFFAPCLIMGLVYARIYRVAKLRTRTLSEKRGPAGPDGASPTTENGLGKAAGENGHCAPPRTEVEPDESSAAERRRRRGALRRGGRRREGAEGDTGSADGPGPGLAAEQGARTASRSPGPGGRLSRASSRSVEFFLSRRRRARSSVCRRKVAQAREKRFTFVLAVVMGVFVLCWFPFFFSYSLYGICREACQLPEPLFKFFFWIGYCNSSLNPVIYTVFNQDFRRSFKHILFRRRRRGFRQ", "experiment": "Compound was evaluated for inhibition of binding of [3H]MK-91 to Alpha-2 adrenergic receptor in mouse Malpha2-10H clone", "assay_type": "protein assay"}, "[3]": {"target": "T2, Alpha-2 adrenergic receptor", "experiment": "Compound was evaluated for inhibition of binding of [3H]-MK-91 to Alpha-2 adrenergic receptor in mouse NG-108 cells", "assay_type": "cell-based"}, "[4]": {"target": "T3, Alpha-2A adrenergic receptor (Sus scrofa, UniProt P18871)", "T3 sequence (P18871 whole entry)": "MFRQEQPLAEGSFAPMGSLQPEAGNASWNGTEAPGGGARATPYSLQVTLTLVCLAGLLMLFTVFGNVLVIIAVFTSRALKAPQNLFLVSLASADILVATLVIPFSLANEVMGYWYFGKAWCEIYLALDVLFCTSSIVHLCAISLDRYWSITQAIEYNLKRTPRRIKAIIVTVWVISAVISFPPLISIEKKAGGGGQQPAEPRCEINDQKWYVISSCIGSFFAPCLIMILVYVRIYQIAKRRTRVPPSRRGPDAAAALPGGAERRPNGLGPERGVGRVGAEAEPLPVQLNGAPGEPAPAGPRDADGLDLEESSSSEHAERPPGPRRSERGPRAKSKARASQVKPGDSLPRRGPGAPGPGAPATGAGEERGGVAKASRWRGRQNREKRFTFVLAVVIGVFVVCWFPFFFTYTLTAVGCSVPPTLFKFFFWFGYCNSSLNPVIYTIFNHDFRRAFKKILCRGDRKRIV", "experiment": "Compound was evaluated for inhibition of binding of [3H]MK-91 to Alpha-2 adrenergic receptor in porcine alpha2-clone"}, "[5]": {"target": "T2, Alpha-2 adrenergic receptor", "experiment": "Compound was evaluated for inhibition of binding of [3H]MK-91 to Alpha-2 adrenergic receptor in mouse Malpha2-4H", "assay_type": "protein assay"}}, "data": [{"smiles": "Cc1cc(C(C)(C)C)c(O)c(C)c1CC1=NCCN1", "note": "[OXYMETAZOLINE]", "values": [{"measurement": "Ki", "setting": "[1]", "value": 1.5, "unit": "nM"}, {"measurement": "Ki", "setting": "[2]", "value": 33, "unit": "nM"}, {"measurement": "Ki", "setting": "[3]", "value": 132, "unit": "nM"}, {"measurement": "Ki", "setting": "[4]", "value": 21, "unit": "nM"}, {"measurement": "Ki", "setting": "[5]", "value": 109, "unit": "nM"}]}]}
